# Legend:
# [1] = biological target: T1, 1-alpha, 25-Vitamin D hydroxylase (Homo sapiens, UniProt O15528); details: human vascular smooth muscle; cited from earlier work
# T1 sequence (O15528 1-508): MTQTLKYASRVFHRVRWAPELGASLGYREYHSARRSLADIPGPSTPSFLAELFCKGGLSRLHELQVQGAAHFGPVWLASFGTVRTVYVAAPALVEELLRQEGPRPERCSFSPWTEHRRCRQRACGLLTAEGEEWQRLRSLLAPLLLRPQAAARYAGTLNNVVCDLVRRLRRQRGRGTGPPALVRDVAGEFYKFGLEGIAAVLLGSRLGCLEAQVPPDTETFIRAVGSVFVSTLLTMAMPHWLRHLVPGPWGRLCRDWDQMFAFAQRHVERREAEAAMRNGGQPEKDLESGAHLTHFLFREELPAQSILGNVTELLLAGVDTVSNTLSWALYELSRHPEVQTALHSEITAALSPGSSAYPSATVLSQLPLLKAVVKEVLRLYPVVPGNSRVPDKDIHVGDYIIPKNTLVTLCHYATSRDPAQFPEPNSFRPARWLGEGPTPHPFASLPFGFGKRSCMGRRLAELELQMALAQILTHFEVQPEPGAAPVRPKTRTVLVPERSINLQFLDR
# [2] = test system: Mouse C2C12 skeletal muscle cell myoblasts fused into myotubes; experiment: Protein degradation and synthesis by leucine isotope release/disappearance in C2C12 myotubes with dexamethasone; format: cell-based; details: 24 h, dexamethasone 100 nM
# Method: Mouse C2C12 skeletal muscle cell myoblasts were grown in culture under standard conditions and fused into myotubes following the methods of Menconi et al. (95). Four separate studies were conducted during different weeks. The first 3 studies consisted of 4 replicate dishes per treatment and the fourth study consisted of 6 replicate dishes per treatment. The treatments were applied to the cells during the 24 h measurement period. Treatments applied were control, 25OH-VitD3 (200 ng/mL), HMB (200 μM HMB as Ca(HMB)2, and the combination of HMB and 25OH-VitD3. Dexamethasone (100 nM) was added to the culture medium during the treatment/measurement period to stimulate protein degradation. Calcium in the form of calcium chloride was added to the control and 25OH-VitD3 treatments so that all the treatments were balanced for calcium. For measurement of protein degradation during the treatment period, leucine free medium was obtained to which [5,5,5]^2H3-leucine was added so that the isotopes of leucine (natural leucine and [1-^13C]-leucine) could be measured as they were released into the medium through the protein degradation process. The measurement medium was sampled at 2 and 24 h and samples stored at −80° C. until analyzed. The samples were analyzed for leucine using a gas chromatography (model 6890, Hewlett Packard, Palo, Calif.) mass spectrometry (model 5973, Hewlett Packard, Palo, Calif.) and the gas chromatography column used for the analysis was a Zebron ZB-5. (Phenomenex, Torrence, Calif.). Natural leucine, [1-^13C]-leucine, and [5,5,5^2H3]-leucine were monitored at 302, 303, and 305 AMU, respectively. Corrections for sampling at 2 h and for leucine utilization from the measurement media were made. […] Concentrations of proteins were analyzed following the microplate assay instructions using a Pierce BCA protein assay kit (Thermo Scientific, Rockford, Ill.). DNA was measured flourometrically using the Quant-iT™ dsDNA assay kit from Invitrogen (Carlsbad, Calif.). […]
# [3] = 12-week HMB / Vitamin D study, muscular performance index; format: in vivo, human; details: eight week performance index, older adults
# From the text: (§1) Prior to the start of the experimental period, we randomly assigned nutritional supplements to each subject using computer-generated random numbers in a double-blind fashion. Treatments were arranged in a 2×2 factorial design with two levels of HMB (0 & 3.0 g/d) and two levels of Vitamin D (0 & 2,000 IU/d). We assigned subjects to one of the following four treatments:
# Functionality tests included: “Get-up-and-Go” performance (speed and gate), and “Get-up” performance. The “Get-up-and-Go” test consisted of timed measurements of the subject's starting from a seated position, standing, walking forward 3 meters, turning around, walking back to the chair, and sitting down. […] The complete descriptions and standardization of the tests are outlined in the Physical Dimensions of Aging by Waneen W. Spirduso (Human Kinetics, 1995).
# A muscular performance index was calculated by summing the percentage change from baseline for Get-up-and-Go, Get-up, handgrip, peak torque for knee extension and flexion (60, 90 and 120°/sec) and peak torque for elbow extension and flexion (60°/sec).
# (§2) Least Squares Mean±SEM were calculated strength and functionality changes in each variable over the 12-week period. […] Statistical significance was determined for p<0.05 and a trend was determined for 0.05<p<0.10.
# [4] = 12-week HMB / Vitamin D study, knee extension strength (BIODEX peak torque); format: in vivo, human; details: older adults, 8 weeks
# From the text: as §1
# The exercise testing and training session was supervised by trained research associates. Resting heart rate and blood pressure measurements were obtained prior to strength measurements. Enrolled individuals participated in an exercise training program consisting of strength training exercises with Theraband® stretch cords (resistance training) and jumping. The equipment consisted of items that can easily be used at home. Exercise sessions were 3 times a week for 12 weeks. Each exercise session was about 45-60 minutes. […]
# Body composition measurements were obtained at 0, 4, 8, and 12 weeks. […] Handgrip strength was measured using a handgrip dynamometer. Peak torque for knee extension and flexion was measured at 60, 90 and 120°/sec. Peak torque for elbow extension and flexion was measured at 60 and 120°/sec.
# as §2
# [5] = 12-week 2x2 HMB / Vitamin D study in older adults with exercise training, serum 25OH-VitD3; format: in vivo, human; details: control or HMB alone, no Vitamin D supplement
# From the text: Elderly women (n=30) and men (n=16) were recruited into a double-blinded controlled study. The older adults were recruited from two locations in South Dakota: Brookings and Sioux Falls. The subjects underwent an initial screening and were randomized to treatments. Testing consisted of an initial (0 weeks) and follow-up testing at 4, 8 and 12 weeks over the course of the 12-week study.
# as §1
# The treatments were supplied in capsules of equal size and color and contained equal amounts of calcium and phosphorus. The subjects were instructed to take three capsules two times a day. Each subject was supplied with a one-week supply of the supplement, allocated by subject number and returned each week for an additional 1-week supply. […]
# as §2
# [6] = after HMB is fed; cited from earlier work
# [7] = 12-week HMB / Vitamin D study, urinary HMB concentration (supplement compliance); format: in vivo, human; details: clean catch urine sample, HMB 3.0 g/day
# Method: The average 25OH-VitD3 concentration at wk 0 was 26.5 ng/ml. […] However, subjects either supplemented with a control or HMB alone decreased their serum 25OH-VitD3 level by 2.0 ng/mL. A clean catch urine sample was used to test for supplement compliance.
Molecule,Km [1],dexamethasone stimulated protein degradation [2],increase in the performance index over the control [3],knee extension strength compared to control-treated subjects [4],decrease in protein degradation measured by [1-13C]-leucine ([2]; HMB 200 μM),decrease in protein degradation measured by natural leucine ([2]; HMB 200 μM),decrease in serum 25OH-VitD3 level [5],loss of HMB to urine [6],increase in urinary HMB concentration [7]
C=C1CC[C@H](O)C/C1=C/C=C1\CCC[C@]2(C)[C@@H]([C@H](C)CCCC(C)(C)O)CC[C@@H]12 [25OH-VitD3],25 ng/mL,–,–,–,–,–,–,–,–
"C=C1CC[C@H](O)C/C1=C/C=C1\CCC[C@]2(C)[C@@H]([C@H](C)CCCC(C)C)CC[C@@H]12 [Vitamin D, cholecalciferol]",–,tended to decrease dexamethasone stimulated protein degradation in only the faster turnover protein pool,58%,Neither the HMB alone nor the Vitamin D-treated subjects increased knee extension strength,–,–,–,–,–
β-hydroxy-β-methylbutyrate [HMB],–,–,35%,Neither the HMB alone nor the Vitamin D-treated subjects increased knee extension strength,6.3%,7.6%,2.0 ng/mL,20-50%,50 fold

# From patent US11173167B2, “Nutritional intervention for improving muscular function and strength” (Metabolic Technologies, Inc., priority 2008, dated 2021)
